Results from patent US6369101B1, “Therapeutic method to treat herpes virus infection” (Regents of the University of Minnesota, priority 1999, dated 2002).
≈ marks a conversion by molar mass, not a printed value. Like-named read-outs stand apart in the source and are kept apart here.

Experiments:
Epstein-Barr Virus = experiment: VCA expression in EBV-infected Daudi cells
Description: Raji is a Burkitt's lymphoma cell line containing 60 EBV genome/cell, and was the primary cell used for screening antiviral activity against EBV early antigen (EA) expression. […] It spontaneously expresses EBV EA in 0.25-0.5% of the cells. It was used in follow-up studies to confirm activity. These cell lines respond to superinfection by EBV by expressing EA-diffuse component EA (D), EA restricted component EA (R), and viral capsid antigen (VCA). […] The cultures were fed twice weekly and the cell concentration was adjusted to 3×10^5/ml. The cells were kept at 37° C. in humidified atmosphere with 5% CO2.
Cells were infected with the P3HR-1 strain of HBV and the test compound was added after adsorption (45 minutes at 37° C.) and washing of the cell cultures. The cultures were incubated for two days in complete medium to allow viral gene expression. Following the 48 hours of incubation, the numbers of cells of each sample was counted and smears were made. Monoclonal antibodies to the different EA components and VCA were then added to the cells and then incubated and washed. This is followed by a fluorescein conjugated rabbit anti-mouse IgG antibody, and the number of fluorescence cells in the smear were counted. The total number of cells in the cultures positive for EA or VCA were then calculated and compared.

[1] = CC50 in HFF cells (Table 3); format: cell-based, human; conditions: human
Method: (§1) The cells were observed daily for any change in morphology. The rounding and lysis of cells were observed if the compound has cytotoxic effect. At the end of this time, the media-drug solution was removed and the cells washed. […] The cells-media mixture was then pipetted up and down several times to resuspend the cells and 0.2 ml of the cell suspension was added to 9.8 ml of trypan blue and cells were counted using hemocytometer. Each sample was counted three times with three replicate wells per sample.

[2] = CC50 in Daudi cells (Table 3); format: cell-based; conditions: human
Method: (§8) Raji is a Burkitt's lymphoma cell line containing 60 EBV genome/cell, and was the primary cell used for screening antiviral activity against EBV early antigen (EA) expression. Daudi is a low level producer that contains 152 EBV genome copies/cell. It spontaneously expresses EBV EA in 0.25-0.5% of the cells. It was used in follow-up studies to confirm activity. […] All cell lines were maintained in RPMI-1640 medium supplemented with 10% FCS, L-glutamine and 100 μg/ml gentamicin. The cultures were fed twice weekly and the cell concentration was adjusted to 3×10^5/ml. The cells were kept at 37° C. in humidified atmosphere with 5% CO2.

Varicella-Zoster Virus = experiment: CPE inhibition in stationary cells (visual), VZV in HFF cells; format: cell-based
Human Cytomegalovirus = experiment: CPE inhibition in stationary cells (visual), HCMV in HFF cells; format: cell-based
HSV-2 strain G = experiment: CPE inhibition, HSV-2 strain G in HEp-2 cells; note: key: +++ = Complete cytopathic effect; ++ = Moderate cytopathic effect; + = Minimum cytopathic effect; − = No cytopathic effect; format: cell-based, herpes simplex virus type 2; conditions: conc. per compound (ng/ml)
Description: (§2) Human laryngeal epithelial carcinoma cells (HEp-2, ATCC, Rockville, Md.) were used for testing of antiviral compounds by cytopathic effect (CPE) inhibition and plaque reduction assay. Primary human foreskin fibroblast cells (HFF) obtained from Dr. E. R. Kern (Department of Pediatrics, University of Alabama Medical School, 309 Bevill Biomedical Research Building, 845 19th Street South, Birmingham, Ala., 35294-2170), were used for cytopathic effect (CPE) inhibition assay. HEp-2, African green monkey kidney cells (Vero, ATCC), HFF and primary rabbit kidney cells were used to determine the cytotoxic effect of compounds of formula I. These cells were propagated in Dulbeco's modified Eagle's medium (DMEM) (Sigma, USA) supplemented with 10% inactivated fetal calf serum (FCS), 25 mM HEPES, 0.2% sodium bicarbonate and 1% penicillin/-streptomycin at 37° C. in the presence of 5% CO2.
(§3) The antiviral activity of the test compounds was determined against HSV-1 strain F, HSV-2 strain G (ATCC), HSV-1 strain E-377 and HSV-2 strain MS (Dr. E. R. Kern, see above), CMV strain AD 169 (NIH), HCMV (NIH), MCMV (NIH), and VZV strain Ellen (NIH). Highly infective virus stocks of HSV-1 and HSV-2 were prepared by infecting a confluent monolayer of HEp-2 (ATCC) or HFF in 150 cm^2 plastic tissue culture flasks (Falcon, USA) at a multiplicity of infection of 0.5 in DMEM supplemented with 10% inactivated fetal calf serum and 1% penicillin/streptomycin at 37° C. in the presence of 5% CO2. The infected cells were disrupted through three freeze/thaw cycles, and viruses were clarified from large cell debris by low speed centrifugation at 3000 rpm for 10 minutes. The virus suspension was separated, aliquoted and stored at −80° C. until assayed or used for animal infection. The stock HSV-1 (E377) and HSV-2 (MS strain) contained 3.5×10^8 and 1.1×10^7 pfu/ml respectively.
(§4) Low passage HFF cells were seeded into 96-well tissue culture plates 24 hours prior to use at a cell concentration of 2.5×10^4 cells per ml in 0.2 ml of DMEM supplemented with 10% fetal calf serum. After 24 hours of incubation at 37° C. in the presence of 5% CO2, medium was removed and the test compounds were diluted two-fold in DMEM in the 96-well tissue culture plate containing monolayer. […] For both HSV-1 and HSV-2 assays, the virus concentration utilized was 1000 pfu/ml and for HCMV, MCMV, and VZV assay 2500 pfu/ml were used. The plates were then incubated at 37° C. in the presence of 5% CO2 for two to three days for HSV-1 and HSV-2, 10 days for VZV and 14 days for HCMV and MCMV. The virus induced cytopathic effect (CPE) was monitored microscopically every day. CPE of HSV-1 was recognized by cell rounding and clumping, while HSV-2 formed large syncytia along with rounding and clumping of cells. […] EC50s were estimated from graphical plots of percent CPE against the concentration of the test compounds. The EC50s for each compound are the mean of EC50s for three or more independent experiments. After three days of incubation period, media was aspirated and the cells stained with a 0.1% crystal violet solution for 30 minutes. The stain was then removed and the plates were rinsed with tap water, air dried and retained.

HSV-2 (strain G) = experiment: Plaque reduction assay, HSV-2 strain G in HEp-2 cells; format: cell-based, herpes simplex virus type 2; conditions: conc. per compound (ng/ml) (Acyclovir 250), HSV-2 virus control 47
Method: (§5) HEp-2 cells were grown to monolayer in 24 well tissue culture plates in DMEM containing 10% fetal calf serum at 37° C. for 24-36 hours in the presence of 5% CO2. The monolayer of HEp-2 cells was infected with 0.1 ml of HSV- 1 (strain F) or HSV-2 (strain G) containing 100 pfu. The viruses were allowed to adsorb for 1 hour at 37° C. in the presence of 5% CO2. All wells containing virus infected cells except virus control were overlaid with 0.9 ml of DMEM and 1 ml of test compound. The virus control and cell control received DMEM only. All microtiter plates were incubated at 37° C. in the presence of 5% CO2 and observed twice daily for 72 hours for viral CPE. At the end of the experiment, plates were stained with 0.1% crystal violet and the results were quantified by counting plaque forming units.

[3] = system: Human laryngeal epithelial carcinoma cells (HEp-2); experiment: Cytotoxicity in HEp-2 cells; format: cell-based
Method: as §2, with “Primary human foreskin fibroblast cells (HFF) obtained from Dr. E. R. Kern (Department of Pediatrics, University of Alabama Medical School, 309 Bevill Biomedical Research Building, 845 19th Street South, Birmingham, Ala., 35294-2170), were used for cytopathic effect (CPE) inhibition assay.” left out
(§6) HFF, Vero and HEp-2 cells were seeded in 24-well tissue culture plates at a concentration of […] in DMEM containing 10% FCS and incubated for 24 hours at 37° C. in the presence of 5% CO2. To the monolayer of these cells 0.5, 1.0, 1.5 and 2.0 ml of solution of antiviral compounds were added in the respective wells in duplicate and the cells were then incubated in a 5% CO2 incubator at 37° C. for 72 hours. The cells were observed daily for any change in morphology. […] At the end of this time, the media-drug solution was removed and the cells washed. One ml of 0.25% trypsin was added to each well and incubated until the cells start to come off of the plate. The cells-media mixture was then pipetted up and down several times to resuspend the cells and 0.2 ml of the cell suspension was added to 9.8 ml of trypan blue and cells were counted using hemocytometer. Each sample was counted three times with three replicate wells per sample.

HSV-1 strain F = experiment: CPE inhibition, HSV-1 strain F in HEp-2 cells; note: key: +++ = Complete cytopathic effect; ++ = Moderate cytopathic effect; + = Minimum cytopathic effect; − = No cytopathic effect; format: cell-based, herpes simplex virus type 1; conditions: conc. per compound (ng/ml)
Description: as §2, §3, §4

HSV-2 strain MS = experiment: CPE inhibition assay, HSV-2 MS in human foreskin fibroblast cells; format: cell-based, herpes simplex virus type 2; conditions: CPE inhibition in HFF cells
Method: (§7) Stock solutions of the compounds used for the testing of antiviral activity against HSV-1 and HSV-2 were prepared in distilled water, filtered through 0.2 μm filter (Acrodisco®, Gelman Sciences, USA) and stored at room temperature until used.
as §2, §3, §4

Daudi cells = experiment: CC50 in Daudi cells (Table 3); format: cell-based
Method: as §8

HSV-1 (strain F) = experiment: Plaque reduction assay, HSV-1 strain F in HEp-2 cells; format: cell-based, herpes simplex virus type 1; conditions: conc. per compound as in column Conc. (ng/ml), HSV-1 virus control 5
Method: as §5

HSV-1 strain E-377 = experiment: CPE inhibition assay, HSV-1 E377 in human foreskin fibroblast cells; format: cell-based, herpes simplex virus type 1; conditions: CPE inhibition in HFF cells
Method: as §7, §2, §3, §4

[4] = system: Primary human foreskin fibroblast cells (HFF); experiment: Cell proliferation assay (cytotoxicity) in HFF cells; format: cell-based
Method: as §2, with “Primary human foreskin fibroblast cells (HFF) obtained from Dr. E. R. Kern (Department of Pediatrics, University of Alabama Medical School, 309 Bevill Biomedical Research Building, 845 19th Street South, Birmingham, Ala., 35294-2170), were used for cytopathic effect (CPE) inhibition assay.” left out
as §6

Mouse Cytomegalovirus = experiment: CPE inhibition in stationary cells (visual), MCMV in MEF cells; format: cell-based; conditions: test compounds in DMSO
[5] = CC50 in MEF cells (Table 3); format: cell-based; conditions: Mouse Cytomegalovirus section of Table 3
HFF cells = experiment: CC50 in HFF cells (Table 3); format: cell-based, human; conditions: HFF cells
Method: as §1

MEF cells = experiment: CC50 in MEF cells (Table 3); format: cell-based; conditions: Mouse Cytomegalovirus section of Table 3
[6] = human gammaherpesvirus 4, Daudi
[7] = Human alphaherpesvirus 3, test compounds in DMSO, read-out: EC50
[8] = Human betaherpesvirus 5, test compounds in DMSO, read-out: EC50
[9] = HFF cells, Human Cytomegalovirus section of Table 3, read-out: CC50
[10] = HEp-2 cells, conc. per compound (ng/ml)
[11] = Epstein-Barr Virus, Daudi cells, VCA, test compounds in DMSO
[12] = Human Cytomegalovirus section of Table 3
[13] = Varicella-Zoster Virus section of Table 3
[14] = Daudi cells, Epstein-Barr Virus section of Table 3

Compound: C=C(C)[C@@H]1CC[C@]2(COP(=O)(O)O)CC[C@]3(C)[C@H](CC[C@@H]4[C@@]5(C)CC[C@H](OP(=O)(O)O)C(C)(C)[C@@H]5CC[C@]43C)[C@@H]12 [Betulin diphosphate]
- EC50 (Epstein-Barr Virus; [6]): 0.00039 µg/mL
- CC50 at 72 h ([1]; CC50): > 0.1 µg/mL
- CC50 [2]: > 0.05 µg/mL
- EC50 (Varicella-Zoster Virus; [7]): > 0.1 µg/mL

Compound: C[C@H]1[C@H](C)CC[C@]2(C(=O)O)CC[C@]3(C)C(=CC[C@@H]4[C@@]5(C)CC[C@H](O)C(C)(C)[C@@H]5CC[C@]43C)[C@H]12 [Ursolic acid]
- EC50 (Epstein-Barr Virus; [6]): 0.0485 µg/mL (≈ 0.106 µM)
- EC50 (Human Cytomegalovirus; [8]): > 0.1 µg/mL
- Cytopathic Effect (CPE) Inhibition HSV-2 Strain G (HSV-2 strain G): ++
- CC50 at 72 h [1, 9]: > 0.1 µg/mL
- CC50 at 72 h ([1]; HFF cells, Varicella-Zoster Virus section of Table 3, read-out: CC50): 0.0029 µg/mL (≈ 0.00635 µM)
- CC50 ([2]; Daudi cells, Epstein-Barr Virus section of Table 3, read-out: CC50): > 0.05 µg/mL
- Plaque Reduction Assay Average pfu/10^5 Cells HSV-2 Strain G (HSV-2 (strain G)): 33 pfu/10^5 Cells
- Cell Cytotoxicity [3, 10]: −
- EC50 (Varicella-Zoster Virus; [7]): > 0.0008 µg/mL
- Cytopathic Effect (CPE) Inhibition HSV-1 Strain F (HSV-1 strain F): ++

Compound: C[C@H]1[C@H](C)CC[C@]2(CO)CC[C@]3(C)C(=CC[C@@H]4[C@@]5(C)CC[C@H](O)C(C)(C)[C@@H]5CC[C@]43C)[C@H]12 [Uvaol]
- EC50 HSV-2 MS (HSV-2 strain MS): >0.25 µg/mL
- EC50 (Epstein-Barr Virus; [11]): 0.00031 µg/mL (≈ 0.0007 µM)
- EC50 (Human Cytomegalovirus; test compounds in DMSO): >0.1 µg/mL
- Cytopathic Effect (CPE) Inhibition HSV-2 Strain G (HSV-2 strain G): ++
- CC50 (Daudi cells): 0.0443 µg/mL (≈ 0.1 µM)
- Plaque Reduction Assay Average pfu/10^5 Cells HSV-2 Strain G (HSV-2 (strain G)): 28 pfu/10^5 Cells
- Cell Cytotoxicity [3]: −
- EC50 (Varicella-Zoster Virus; test compounds in DMSO): >0.02 µg/mL
- Plaque Reduction Assay Average pfu/10^5 Cells HSV-1 Strain F (HSV-1 (strain F)): 0 pfu/10^5 Cells
- EC50 HSV-1 E377 (HSV-1 strain E-377): >0.25 µg/mL
- Cytopathic Effect (CPE) Inhibition HSV-1 Strain F (HSV-1 strain F): ++
- CC50 [4]: 0.125 µg/mL (≈ 0.282 µM)

Compound: Nc1nc(O)c2ncn(COC(CO)CO)c2n1 [Ganciclovir ®, Ganciclovir, reference compound]
- EC50 (Human Cytomegalovirus; [8]): 0.1 µg/mL (≈ 0.392 µM)
- CC50 at 72 h [1, 9]: > 100 µg/mL
- EC50 (Mouse Cytomegalovirus; read-out: EC50): 0.9 µg/mL (≈ 3.53 µM)
- CC50 [5]: > 100 µg/mL

Compound: C[C@@H]1O[C@@H](O[C@H]2[C@H](O[C@H]3CC[C@@]4(C)[C@@H](CC[C@]5(C)[C@@H]4CC=C4[C@@H]6CC(C)(C)CC[C@]6(C(=O)O)CC[C@]45C)[C@]3(C)CO)OC[C@H](O)[C@@H]2O)[C@H](O)[C@H](O)[C@H]1O [Hederine hydrate, α-hederin hydrate]
- EC50 HSV-2 MS (HSV-2 strain MS): >0.25 µg/mL
- EC50 (Epstein-Barr Virus; [11]): 0.0015 µg/mL
- EC50 (Human Cytomegalovirus; test compounds in DMSO): >0.004 µg/mL
- Cytopathic Effect (CPE) Inhibition HSV-2 Strain G (HSV-2 strain G): ++
- CC50 (HFF cells; [12]): 0.01 µg/mL
- CC50 (HFF cells; [13]): 0.0115 µg/mL
- CC50 (Daudi cells; [14]): 0.0038 µg/mL
- Plaque Reduction Assay Average pfu/10^5 Cells HSV-2 Strain G (HSV-2 (strain G)): 38 pfu/10^5 Cells
- Cell Cytotoxicity [3, 10]: −
- EC50 (Varicella-Zoster Virus; test compounds in DMSO): >0.004 µg/mL
- EC50 HSV-1 E377 (HSV-1 strain E-377): >0.25 µg/mL
- Cytopathic Effect (CPE) Inhibition HSV-1 Strain F (HSV-1 strain F): ++
- CC50 ([4]; Human foreskin fibroblast cells, reduces growth of uninfected cells by 50%): >0.25 µg/mL

Compound: Betulin succinate
- EC50 (Epstein-Barr Virus; [11]): >0.05 µg/mL
- EC50 (Human Cytomegalovirus; test compounds in DMSO): 0.0039 µg/mL
- CC50 (HFF cells; [12]): 0.0969 µg/mL
- CC50 (HFF cells; [13]): 0.0688 µg/mL
- EC50 (Mouse Cytomegalovirus): >0.004 µg/mL
- CC50 (Daudi cells; [14]): >0.05 µg/mL
- EC50 (Varicella-Zoster Virus; test compounds in DMSO): >0.02 µg/mL
- CC50 (MEF cells): 0.014 µg/mL
